The test has as its target Voltage-dependent L-type calcium channel subunit alpha-1C (Cavia porcellus). The test is described as follows: Displacement of [3H](+)-PN200-110 binding to calcium channels in guinea pig cardiac membranes. For orientation: Loss of bound radioactivity is the signal in a displacement assay; it reports binding, not function.
By Ki is commonly meant a measure of affinity in units of concentration, obtained from inhibition or displacement. With `CCOC(=O)C1=C(C)N=C(C)C(C(=O)OCC)C1c1c(C)noc1CCc1ccccc1-c1ccccc1` (stereo not drawn) [4-[5-(2-Biphenyl-2-yl-ethyl)-3-methyl-isoxazol-4-yl]-2,6-dimethyl-1,4-dihydro-pyridine-3,5-dicarboxylic acid diethyl ester], the inhibition constant (Ki) came to 91 nM.

Consider `CCOC(=O)C1=C(C)N=C(C)C(C(=O)OCC)C1c1c(C)noc1CCc1cccc2ccccc12` (stereo not drawn) [2,6-Dimethyl-4-[3-methyl-5-(2-naphthalen-1-yl-ethyl)-isoxazol-4-yl]-1,4-dihydro-pyridine-3,5-dicarboxylic acid diethyl ester], for which the Ki amounted to 4.1 nM. On to `CCOC(=O)C1=C(C)N=C(C)C(C(=O)OCC)C1c1c(C)noc1CCc1ccc2ccccc2c1` (stereo not drawn) [2,6-Dimethyl-4-[3-methyl-5-(2-naphthalen-2-yl-ethyl)-isoxazol-4-yl]-1,4-dihydro-pyridine-3,5-dicarboxylic acid diethyl ester], for which the Ki was found to be 20 nM.

The record behind these values is BindingDB's records for doi:10.1021/jm980439q (State University of New York, 1999).
